According to US10993937B2, “Composition, for preventing or treating dry eye syndrome, containing polyethylene glycol and flavonoid nanocomposite as active ingredient” (INJE UNIVERSITY INDUSTRY-ACADEMIC COOPERATION FOUNDATION, priority 2017, dated 2021):

Key:
NOD.B10.H2^b mouse [1] = test: Corneal fluorescence staining assay (NEI grading); assay type: in vivo
Procedure: (§1) Eighty three NOD.B10.H2^b mice (6 weeks old) in total were obtained from the Jackson Laboratory (Bar Harbor, Me., USA) and performed an acclimatization process for 6 to 10 weeks. Mice were kept in a semi-pathogen free (SPF) facility, and feed and water were provided as free feed.
Six mice were used for histopathological analysis as a baseline. Seventy seven mice were injected subcutaneously four times daily for 10 days with 500 μg/200 μL of scopolamine hydrobromide (Sigma-Aldrich) which is a muscarinic receptor blocker. […] On day 10 after scopolamine hydrobromide injection and dryness stress exposure, tear production was measured and a photograph of the cornea was taken.
(§2) On day 10 of DS, 11 mice were used for histopathological analysis. […] All treatments were performed by injecting five times a day and the amount of tear, corneal disorder and fluorescein scores were measured at baseline, day 10 of DS, and day 3, 5, 7, and 10 after treatment. […] In addition, expression of inflammatory factors associated with immunohistochemical staining in the lacrimal gland was evaluated.
Fluorescence staining of the cornea was performed with reference to a previously reported paper (CLAO J. 1995; 21: 221-232). […] Punctate staining was assessed using a standard NEI (national eye institute) grading system with scores of 0 to 3 on each of the five areas of the cornea.

ICAM-1 = test: Immunohistochemistry of lacrimal gland sections, ICAM-1 expression; assay type: in vivo, mouse; conditions: versus day 10 of DS and the vehicle-treated group
Procedure: as §1
(§3) Six mice were used for histopathological analysis as a baseline. Seventy seven mice were injected subcutaneously four times daily for 10 days with 500 μg/200 μL of scopolamine hydrobromide (Sigma-Aldrich) which is a muscarinic receptor blocker. At this time, the mice were exposed to desiccation stress (DS) for 10 days, including air ventilation by the fan, with an average ambient humidity of 40% or less for 18 hours daily. On day 10 after scopolamine hydrobromide injection and dryness stress exposure, tear production was measured and a photograph of the cornea was taken.
(§4) On day 10 of DS, 11 mice were used for histopathological analysis. […] All treatments were performed by injecting five times a day and the amount of tear, corneal disorder and fluorescein scores were measured at baseline, day 10 of DS, and day 3, 5, 7, and 10 after treatment. […] In addition, expression of inflammatory factors associated with immunohistochemical staining in the lacrimal gland was evaluated. […]

MMP-9 = test: Immunohistochemistry of lacrimal gland sections, MMP-9 expression; assay type: in vivo, mouse; conditions: compared with the day 10 of DS
Procedure: as §1, §3, §4

NOD.B10.H2^b mouse [2] = test: Analysis of corneal irregularities (white ring, corneal disorder score); assay type: in vivo; conditions: for corneal disorder score: 5-point scale
Procedure: as §1, §3, §2
Corneal abnormality was measured with reference to a previously reported paper (Invest Ophthalmol Vis Sci. 2006; 47:2847-2856). […] Corneal smoothness was assessed by grading the irregularity of the corneal epithelial cells reflected in the white ring of the digital image. The reflected ring was divided into quarters and the corneal disorder score was calculated using the 5-point scale based on the number of distorted branches in the reflected ring: 0, no distortion; 1, a quarter of distortion; 2, two-quarters of distortion; 3, three-quarters of distortion; 4, four-quarters of distortion; 5, severe distortion.

NOD.B10.H2^b mouse [3] = test: Tear production analysis (phenol red-impregnated cotton threads) in mouse model of dry eye syndrome; assay type: in vivo; conditions: for amount of tears: 1% eye drops 5 μL five times a day, mean±SD
Procedure: as §1, §3
On day 10 of DS, 11 mice were used for histopathological analysis. Sixty six mice were randomly divided into six groups: vehicle (n=11, saline of 5 μL), catechin group (n=11, 1% catechin of 5 μL), CP1 group (n=11, 1% CP1 5 μL), CP5 group (n=11, 1% CP5 5 μL), CP10 group (n=11, 1% CP10 5 μL) and PEG group (n=11, 1% PEG 5 μL). All treatments were performed by injecting five times a day and the amount of tear, corneal disorder and fluorescein scores were measured at baseline, day 10 of DS, and day 3, 5, 7, and 10 after treatment. Hematoxylin and eosin (H&E) and PAS (periodic acid Schiff) staining were performed on the cornea and conjunctiva, respectively. In addition, expression of inflammatory factors associated with immunohistochemical staining in the lacrimal gland was evaluated.
The amount of tears was measured with reference to a previously reported paper (Eye Contact Lens. 2006; 32(6): 272-276). […] The amount of tears was calculated by comparison with a standard curve expressed using a basic solution (1.5 L of 0.9% saline and 5 mL of 5 N sodium hydroxide (NaOH)).

TNF-α = test: Immunohistochemistry of lacrimal gland sections, TNF-α expression; assay type: in vivo, mouse; conditions: immunostaining; dryness stress 2.04 times of control
Procedure: as §1, §3, §4

NOD.B10.H2^b mouse [4] = test: Density of conjunctival goblet cells (PAS staining); assay type: in vivo; conditions: after treatment; control 12.86±0.76, dryness stress 6.19±0.16
Procedure: as §1, §3, §4

IL-6 = test: Immunohistochemistry of lacrimal gland sections, IL-6 expression; assay type: in vivo, mouse; conditions: immunostaining; dryness stress 4.02 times of control
Procedure: as §1, §3, §4

VCAM-1 = test: Immunohistochemistry of lacrimal gland sections, VCAM-1 expression; assay type: in vivo, mouse; conditions: versus day 10 of DS and the vehicle-treated group
Procedure: as §1, §3, §4

IL-17 = test: Immunohistochemistry of lacrimal gland sections, IL-17 expression; assay type: in vivo, mouse; conditions: immunostaining; dryness stress 15.35 times of control
Procedure: as §1, §3, §4

IL-1β = test: Immunohistochemistry of lacrimal gland sections, IL-1β expression; assay type: in vivo, mouse; conditions: immunostaining; dryness stress 3.55 times of control
Procedure: as §1, §3, §4

For catechin, the “corneal fluorescence staining score” value (NOD.B10.H2^b mouse [1]; day 7 after treatment, vehicle 10.00±1.00) was 6.67±0.58, the “corneal fluorescence staining score” value (NOD.B10.H2^b mouse [1]; day 10 after treatment) was 3.67±0.58 and the “expression of ICAM-1, effect in words” value (ICAM-1) was “did not show statistically significant difference”. The “expression of MMP-9, effect in words” value (MMP-9) was “significantly decreased the MMP-9 expression but did not recover to the control level”, the “day after treatment on which white rings on the corneal surface were observed” value (NOD.B10.H2^b mouse [2]; FIG. 2A, microscopic image) was 10 days and the corneal disorder score (NOD.B10.H2^b mouse [2]; day 7 after treatment, vehicle 3.63±0.48) was 2.88±0.48. For the same substance, the corneal disorder score (NOD.B10.H2^b mouse [2]; day 10 after treatment) was 2.38±0.47, the amount of tears (NOD.B10.H2^b mouse [3]; after 3 days of treatment) was 0.08 ± 0.03 µL and the amount of tears (NOD.B10.H2^b mouse [3]; after 5 days of treatment) was 0.13 ± 0.01 µL. The “days of treatment after which tear production recovered to the baseline level” value (NOD.B10.H2^b mouse [3]; baseline 0.16±0.02 μL) was 5 days, the “expression of TNF-α in the lacrimal gland” value (TNF-α) was “no statistically significant difference with day 10 of DS” and the “number of conjunctival goblet cells” value (NOD.B10.H2^b mouse [4]) was 9.71±1.25 /0.1 mm^2. The “expression of IL-6 in the lacrimal gland” value (IL-6) was “no statistically significant difference with day 10 of DS”, the “expression of VCAM-1, effect in words” value (VCAM-1) was “did not show statistically significant difference” and the “IL-17 expression in the lacrimal gland” value (IL-17) was “significantly decreased IL-17 expression”. The “expression of IL-1β in the lacrimal gland” value (IL-1β) was “no statistically significant difference with day 10 of DS”.
